≈ marks a conversion by molar mass, not a printed value.

In ChEMBL document CHEMBL1649266, “Emergence of an Enterobacter hormaechei strain with reduced susceptibility to tigecycline under tigecycline therapy” (2009) one finds MIC data, which are given here for six molecules.

What all share (type): functional
Test [1] deals with Enterobacter hormaechei. Kind of test: Antibacterial activity against Enterobacter hormaechei isolate UCN63 after 3 weeks of treatment.
Test [2] concerns Enterobacter hormaechei. Briefly: Antibacterial activity against Enterobacter hormaechei isolate UCN62.
Test [3] deals with Enterobacter cloacae. Kind of test: Antibacterial activity against Enterobacter cloacae UCN63 by Etest after 3 weeks of treatment. To be noted: UCN63, 504 h.
The subject of test [4] is Enterobacter cloacae. Kind of test: Antibacterial activity against Enterobacter cloacae UCN62 by broth microdilution method.
The test system of test [5] is Enterobacter cloacae. Briefly: Antibacterial activity against Enterobacter cloacae UCN63 by broth microdilution method after 3 weeks of treatment. Particulars: UCN63, 504 h.
Test [6] has as its system Enterobacter cloacae. Briefly: Antibacterial activity against Enterobacter cloacae UCN62 by Etest.

Consider `NCC[C@H](O)C(=O)N[C@@H]1C[C@H](N)[C@@H](O[C@H]2O[C@H](CN)[C@@H](O)[C@H](O)[C@H]2O)[C@H](O)[C@H]1O[C@H]1O[C@H](CO)[C@@H](O)[C@H](N)[C@H]1O` [AMIKACIN], for which the minimal inhibitory concentration (MIC) – broadly, the lowest concentration found to suppress growth – was 8 µg/mL (≈ 13.7 µM) in test [1] (isolate UCN63, 504 h) and 4 µg/mL (≈ 6.83 µM) in test [2].

Turning to `CO/N=C(\C(=O)N[C@@H]1C(=O)N2C(C(=O)O)=C(COC(C)=O)CS[C@H]12)c1csc(N)n1` [CEFOTAXIME], the MIC in test [1] (isolate UCN63, 504 h) is above 64 µg/mL; in test [2] it was above 64 µg/mL.

As to `O=C(O)c1cn(C2CC2)c2cc(N3CCNCC3)c(F)cc2c1=O` [CIPROFLOXACIN], the MIC in test [1] (isolate UCN63, 504 h) was above 16 µg/mL; in test [2] it was above 16 µg/mL.

In the case of `C[C@@H](O)[C@H]1C(=O)N2C(C(=O)O)=C(SCCNC=N)C[C@H]12` [IMIPENEM ANHYDROUS], the MIC in test [1] (isolate UCN63, 504 h) amounted to 1 µg/mL (≈ 3.34 µM); in test [2] it was 1 µg/mL (≈ 3.34 µM).

Turning to `CN(C)c1cc(NC(=O)CNC(C)(C)C)c(O)c2c1C[C@H]1C[C@H]3[C@H](N(C)C)C(O)=C(C(N)=O)C(=O)[C@@]3(O)C(O)=C1C2=O` [TIGECYCLINE], the MIC came out at 3 µg/mL (≈ 5.12 µM) in test [3]; 4 µg/mL (≈ 6.83 µM) in test [1] (isolate UCN63, 504 h); 2 µg/mL (≈ 3.41 µM) in test [4]; 4 µg/mL (≈ 6.83 µM) in test [5]; 1 µg/mL (≈ 1.71 µM) in test [6]; 2 µg/mL (≈ 3.41 µM) in test [2].

As to GENTAMICIN, the minimum inhibitory concentration (MIC) in test [1] and in test [2] was above 32 µg/mL throughout.
